Tests used:
[1] = system: NF-kB; assay: NF-kB activity assay in DC2.4-NFkB-GLuc reporter cells; format: cell-based, murine; details: indole 24 hours, LPS 10 ug/ml
[2] = system: TNF; assay: TNF production in splenic CD11c+ DCs ex vivo; format: cell-based, mouse; details: indole overnight
Description: To evaluate the possible role of AhR in mediating the anti-inflammatory effects of indole on DCs, AhR-deficient mice were acquired and analyzed splenic and bone marrow-derived DCs. Splenocytes from AhR-deficient and WT mice were first treated overnight with indole, followed by stimulation with heat-killed S. typhimurium.

[3] = system: IL-6; assay: IL-6 production in splenic CD11c+ DCs ex vivo; details: indole overnight, LPS or heat-killed S. typhimurium
[4] = system: IL-12; assay: IL-12 production in BMDMs, intracellular staining, flow cytometry; format: cell-based, mouse
Procedure: BMDMs were treated with indole or DMF control for 18 hours or 4 hours, followed by stimulation with LPS (2 ug/ml or 250 ng/ml) for 4 hours in the presence of Golgiplug. BMDMs were then stained for intracellular TNF or IL-12 and analyzed by flow cytometry.
First, pro-inflammatory cytokine production in macrophages was investigated. […] In the DC study described herein, DCs were typically conditioned with indole during their development from bone marrow precursors in order to mimic the proximity of DC progenitor cells to indole in the intestinal microenvironment during development. […] BMDMs were treated for 18 hours with indole, followed by a 4 hour stimulation with either a very high (2 ug/ml) or low (250 ng/ml) dose of LPS.
Additionally, to determine if recently arrived macrophage precursors might also be affected, BMDMs were next treated for just 4 hours with indole, followed by a […] stimulation with the same LPS concentrations.
To address the question of indole and AhR dependence in macrophages, experiments using BMDMs derived from AhR-knockout mice were run alongside wild-type littermate controls. Specifically, flow cytometric analysis of BMDMs was performed on WT or AhR-KO mice and treated with indole or DMF control for 18 hours. BMDMs were stimulated for 4 hours with LPS (50 ng/ml) in the presence of Golgiplug, then stained for intracellular TNF (left panels) and IL-12 (right panels).
The inventors performed a series of assays where bone marrow derived macrophages (BMDMs), bone marrow derived dendritic cells (BMDCs), and splenic dendritic cells (splenic DCs), were exposed to a series of TDMMs, including indole, indole-3-acetate (I3AT), 5-hydroxyindole (5HI), and indole-3-pyruvate (I3P), as well as indole-3-carbinol (I3C; a plant derived compound) to be used for a positive control (1 mM for 24 hours). The BMDMs and BMDCs were stimulated with LPS for 4 hours and assayed at day 7 for expression of various pro-inflammatory cytokines. In a similar assay, the BMDMs and BMDCs were stimulated with LPS or CpG, respectively, for 15 minutes and assayed for pAKT and pERK signaling, which is a reflection of pro-inflammatory response.
Bone marrow was harvested as described above and cultured at a density of 1×10^6 cells in 10 ml complete media supplemented with 10 ng/ml M-CSF (Peprotech) in 100 mm×15 mm petri dishes. Media with cytokine was replenished on day 3. Adherent and semi-adherent cells were recovered on day 7, plated, and treated with indole prior to downstream experiments.

[5] = system: Salmonella Typhimurium; assay: Salmonella invasion of and intracellular survival in J774.A1 macrophages; format: cell-based
[6] = system: Stat3; assay: IL-6-induced phospho-Stat3 in BMDCs, flow cytometry; format: cell-based, mouse
Procedure: Flow cytometric analysis was performed on BMDCs conditioned with indole from day 3 of culture and subsequently stimulated with IL-6 (10 ng/ml) for the given times. Cells were stained for phospho-Stat3 and analyzed by flow cytometry.
Flow cytometric analysis of BMDCs from WT or AhrKO mice cultured in the presence of indole or DMF from day 3. DCs were stimulated with IL-6 (10 ng/ml) for the given times and stained for phospho-Stat3, which was detected by flow cytometry. Stat3 signaling is shown as percent of phosphorylated cells (FIG. 10A), and MFI of the Stat3 positive population (FIGS. 10B and 10C). The specific Stat3 inhibitor, cucurbitacin I, was included as a negative control. Representative data is shown from one of four independent experiments.
BMDCs were conditioned with indole from day 3 and then induced Stat3 signaling by stimulation with IL-6 (FIGS. 6A and 6B). While Stat3 has both a tyrosine (Y705) and serine (S727) activation site, tyrosine phosphorylation is mediated by Janus kinases and required for Stat3 nuclear localization and subsequent DNA binding. Thus, the […] was queried for this study.

What does the source list for `c1ccc2[nH]ccc2c1` [Indole, indole]?
inhibition of NF-kB signaling [1]: approximately one-third; inhibition of TNF production ([2]; splenic CD11c+ DCs, LPS or heat-killed S. typhimurium): ≥ 2 fold; inhibition of TNF production ([2]; splenic DCs from AhR−/− mice, heat-killed S. typhimurium): 2 fold; inhibition of TNF production ([2]; splenic DCs from WT mice, heat-killed S. typhimurium): 2 fold; inhibition of IL-6 production [3]: ≥ 2 fold; reduction of IL-12 production ([4]; BMDMs from WT or AhR-KO mice, 1 mM indole 18 hours, LPS 50 ng/ml 4 hours): approximately 2 fold; IL-12 ([4]; BMDMs, 1 mM TDMM 24 hours, LPS 1 ug/ml 4 hours): ↓↓↓; inhibition of IL-12 production ([4]; BMDMs, 1 mM indole 18 hours, LPS 2 ug/ml or 250 ng/ml 4 hours): ~2 fold; intracellular survival of Salmonella in J774.A1 macrophages [5]: not significantly affected; decrease of Salmonella invasion of J774.A1 macrophages ([5]; Salmonella exposed to indole): 2 fold; peak phosphorylation of Stat3 (percentage of DCs) ([6]; BMDCs, 1 mM indole from day 3, IL-6 10 ng/ml, 15 minutes post-stimulation): 8%; suppression of phospho-Stat3 MFI ([6]; BMDCs, indole from day 3, IL-6 stimulation, throughout 60 minute timecourse): ≥ 2 fold; inhibition of Stat3 phospho-signaling, WT versus AhR−/− ([6]; indole-DCs generated from WT or AhR−/− bone marrow): nearly equivalent inhibition
